Laboratory results taken from patent US20260248126A1, “BIOCIDE” (PURGOS APS, priority 2020, published 2026).

What was measured:
[1] = tested on: selected typical species of contaminants; test: Substitution of conventional biocides with NBDA in product recipes: biocidal function (LuminUltra test, 32° C. incubation, Examples 3-6); type: cell-based
Description: Provision and test of the N-sample can be optional.
Ideally, the T, C and N-samples are provided and stored using methods, protocols, raw materials, conditions and the like, which are very close, and ideally identical, mutatis mutandis. In particular, the samples should be subjected to similar or identical microbial contamination during their provision, and or storage if possible.
Samples, such as test-, control- and/or negative control samples are provided according to Example 3. To assess the effect of the biocide(s), microbial contamination is measured, such as according to Example 6, or other conventional methods known in the art.
In short, samples are exposed to microbial contamination (microbial stress test) e.g., by opening a lid and closing it for a defined period of time, or other operations, mimicking a conventional user situation. Alternatively, samples can be inoculated with defined quantities of microorganisms, such as one or more indicator microorganism.
The samples can be divided into different aliquots, and incubated for selected periods at one or more relevant temperatures, such as e.g., one or more of 4° C., room temperature (RT, usually 20° C., 22° C., or 25° C.), 30° C., 32° C., 37° C., 40° C., and/or 60° C.), simulating e.g., appropriate storage, processing and usage conditions.
Microbial contamination of control, test and/or negative control samples can be determined according to Example 6.
ATP, such as intracellular ATP is measured using a commercially available system, such as provided by LumiUltra®, in particular a method using luminase (Aqua Tools, see details below).
In short, a buffering solution and Luminase enzyme are mixed. After daily ATP standard calibration, an aliquot, such as 1 ml of sample is transferred to an 1 ml extraction tube. After dilution in UltraLute resin, the total ATP (content can be established in the luminescence measuring device. 2) 1 ml sample is dissolved in LumiSolve stabilizing agent. […] For further details, see e.g., Aqua Tools (78300 Poissy, France) Quick reference guide QuenchGone21™ Speciality Test Kit QG21S-50/QG21St-100 2G.

[2] = 10% N-BDA in water; cited from earlier work
[3] = tested on: Coniophora puteana. BAM Ebw. 15; test: EN 113 test against wood destroying basidiomycetes (impregnated Scots pine sapwood); type: cell-based
Poria placenta. FPRL 280 = test: as above; type: cell-based; settings: for Corrected mass loss / Mass loss: Mean
Bacillus cereus ISI 842 = test: Minimal inhibitory concentration (MIC), microtiter plate; type: cell-based
Description: (§1) For the tested substance. the stock solution was 10%. Minimum inhibitory concentrations (MICs) are defined as the lowest concentration of an antimicrobial that will inhibit the visible growth of a microorganism after a standardized incubation. In the present study, MIC assay was performed by pipetting robot. The principle is that an indicator microorganism at a defined cell density is cultured with a range of concentrations of the test compound, one concentration pr. well in a row on the microtiter plate. For bacteria and yeasts the minimal inhibitory concentration was detected as no increase of optical density (OD), for moulds microtiter plates were read visually. Each indicator organism is tested in duplicate and the MIC is calculated as the average of the two determinations. The tested concentrations of the antimicrobial substances were 2-fold dilutions from 5%. All indicator organisms (see Table 2.) were pre-cultivated in a suitable growth medium and diluted in the same medium to give a final concentration in the assay of ~1×10^3 cfu/ml. The microtiter plates were incubated under specific incubation conditions (see Table 3). [table]

[4] = tested on: Pseudomonas aeruginosa ISI 1462; test: as above; type: cell-based
Description: as §1

[5] = tested on: Lactobacillus brevis ISI 2269; test: as above; type: cell-based
Description: as §1

[6] = tested on: Debaryomyces hansenii ISI 12; test: as above; type: cell-based
Description: as §1

[7] = tested on: Listeria monocytogenes ISI 22; test: as above; type: cell-based
Description: as §1

[8] = tested on: Streptococcus termophilus ISI 1563; test: as above; type: cell-based
Description: as §1

[9] = tested on: Leuconostoc mesenteroides ISI 504; test: as above; type: cell-based
Description: as §1

[10] = tested on: Canidida albicans ISI 1226; test: as above; type: cell-based, Candida albicans
Description: as §1

[11] = tested on: microbial contamination of PVB dispersion (bacteria count); test: PVB dispersion treated with NBDA: microbial contamination by cATP (LuminUltra); type: cell-based; settings: 25° C.
Acute oral toxicity LD50 = type: in vivo; settings: worked out from rat LD50 4250 mg/kg

CCCCN(CCO)CCO [NBDA, N-butyldiethanolamine]
biocidal effect vs normal biocide package ([1]; Styrene-Butadiene-Rubber (SBR)-emulsion, MIT and/or BIT replaced (Example 16)): comparable and better than the normal biocide package | biocidal effect vs benzalkonium chloride ([1]; algae removing compound, 1-5% (Example 9)): comparable or even surpassing benzalkonium chloride in function | biocidal effect vs benzalkonium chloride ([1]; circulating heat-transfer systems, 1-5% (Example 13)): comparable to benzalkonium chloride | biocidal effect vs normal biocide package ([1]; combination products: dispersions, emulsions, suspensions (Example 19)): comparable and better than the normal biocide package | preservation effect vs food preservatives ([1]; food, comparable amounts (Example 40)): shows compatibility and suitable preservation effect(s) | biocidal effect vs normal biocide package ([1]; hand cleanser (Example 37)): comparable or even better than the normal biocide package | biocidal effect vs conventional biocide ([1]; liquid dishwashing compound, MIT and/or BIT replaced with 0.01-1% (Example 7)): comparable to or even surpassing the conventional biocide | biocidal effect vs benzalkonium chloride ([1]; liquid disinfection compound for pipes, 1-5% (Example 11)): comparable to benzalkonium chloride | biocidal effect vs benzalkonium chloride and glutaraldehyde ([1]; liquid disinfection compound for stables, 1-5% (Example 10)): comparable or even surpassing both benzalkonium chloride and glutaraldehyde in function | biocidal effect vs benzalkonium chloride ([1]; liquid disinfection compound, 1-5% (Example 8)): comparable or even surpassing benzalkonium chloride in function | biocidal effect vs normal biocide package ([1]; moisturizing crème / skin- or face-care product (Example 35)): comparable or even better than the normal biocide package | performance vs MIT/BIT system ([1]; precoat composition containing SBR, 0.5% NBDA (Example 24)): same performance as the origin | biocidal effect vs normal biocide package ([1]; soap (Example 38)): comparable or even better than the normal biocide package | biocidal effect vs normal biocide package ([1]; stabilized suspension, MIT and BIT replaced (Example 18)): comparable and better than the normal biocide package | biocidal effect vs chlorine based solutions ([1]; swimmingpool water (Example 36)): comparable or even better than chlorine based traditional solutions | biocidal effect vs benzoate ([1]; toothpaste, benzoate replaced with similar concentration (Example 34)): comparable or even better than benzoate | biocidal effect vs benzalkonium chloride ([1]; waterborne cooling compound, 1-5% (Example 12)): comparable or surpassing benzalkonium chloride | biocidal effect vs benzalkonium chloride ([1]; watersystems for toilets, washing facilities, 1-5% (Example 14)): comparable to benzalkonium chloride | pH [2]: around 11.1 | Toxic value, Sol. conc. [3]: >1.43 % w/w | Toxic value, Sol. conc. (Poria placenta. FPRL 280): 0.72-1.01 % w/w | Corrected mass loss (Poria placenta. FPRL 280; Solution conc. 0.36 % w/w): 14.2% | Corrected mass loss (Poria placenta. FPRL 280; Solution conc. 0.72 % w/w): 8.2% | Mass loss (Poria placenta. FPRL 280; Solution conc. 0.72 % w/w): 7.8% | Corrected mass loss (Poria placenta. FPRL 280; Solution conc. 1.01 % w/w): 1.4% | Mass loss (Poria placenta. FPRL 280; Solution conc. 1.01 % w/w): 1.0% | Corrected mass loss (Poria placenta. FPRL 280; Solution conc. 1.43 % w/w): 1.5% | Mass loss (Poria placenta. FPRL 280; Solution conc. 1.43 % w/w): 0.4% | fungicide effect, preventing wood destruction (Poria placenta. FPRL 280; concentrations of 0.36%, 0.51%, 0.72%, 1.01% and 1.43%): effective as a fungicide for preventing wood destruction | MIC (%) (Bacillus cereus ISI 842): 1.25% | MIC (%) [4]: 0.63% | MIC (%) [5]: 0.16% | MIC (%) [6]: 1.25% | MIC (%) [7]: 1.25% | MIC (%) [8]: 0.63% | MIC (%) [9]: 0.31% | MIC (%) [10]: 0.63% | pH ([11]; 0.50% NBDA, after 1 month): 9.73 | pH ([11]; 0.50% NBDA, after 1 week): 9.65 | pH ([11]; 0.50% NBDA, after 3 months): 9.62 | pH ([11]; 0.50% NBDA, after 6 months): 9.58 | pH ([11]; 0.50% NBDA, after 1 day): 9.77 | pH ([11]; 1.00% NBDA, after 1 month): 9.86 | pH ([11]; 1.00% NBDA, after 1 week): 9.89 | pH ([11]; 1.00% NBDA, after 3 months): 9.93 | pH ([11]; 1.00% NBDA, after 6 months): 9.67 | pH ([11]; 1.00% NBDA, after 1 day): 10.2 | human consummation equivalent to LD50 (Acute oral toxicity LD50): 319 gram pr 75 kg
